The record followed here is US20250171448A1, “SOLID STATE FORMS OF GUSACITINIB” (TEVA PHARMACEUTICALS INTERNATIONAL GMBH, priority 2022, published 2025).

Format in all cases: physicochemical
A short description of series [1]: Storage stability at different relative humidity (XRPD after 7 days). The note with it: ambient temperature; for XRPD analysis results 60% (7 days): polymorphic conversion: 60% relative humidity. As to the method: Samples of Gusacitinib Forms: GS2, GS3, GS4 and Gusacitinib HCl salt Forms GHC11, GHC12, GHC18 were subjected to conditions of different relative humidity at ambient temperature. XRPD analysis was performed on the samples after 7 days.
A sample of Form GHC13 of Gusacitinib HCl salt was subjected to 60% relative humidity for 7 days.

Series [2] in a line: Stability under tested stress conditions (grinding, pressure of 2 tons, humidity, temperature), summary statements. The note with it: strong grinding; for stability under all tested stress conditions: high temperature up to 100° C.
Series [3] is described as follows: Grinding experiments (strong grinding and solvent drop grinding, XRPD). As to the method:
Samples of Gusacitinib Forms: GS2, GS3, GS4 and Gusacitinib HCl salt Forms: GHC11, GHC12, GHC13, GHC18 were subjected to strong grinding, and to solvent drop grinding in isopropanol, ethanol and water. Grinding was carried out on the sample alone, or in the presence of the solvent. In these experiments, about 20 mg of the sample is placed in a mortar and ground with a pestle for 2 minutes. The solvent, when used, was added to the crystalline material before grinding, in a volume of 10 microlitres. XRPD analysis performed on the sample after the grinding experiment, confirmed no conversion of the starting material (Table 2): […]

A short description of series [4]: Thermal stability (heating up to 100° C. for 30 minutes, XRPD). As to the method: Samples of Gusacitinib Forms: GS2, GS3, GS4 and Gusacitinib HCl salt Forms GHC11, GHC12 and GHC18 were subjected to heating up to 100° C. for 30 minutes. XRPD analysis of the samples confirmed there to be no change in the starting material (Table 3): […]

Structures are written as SMILES.

As to `N#CCC1CCN(c2nc(Nc3ccc(N4CCC(O)CC4)cc3)c3c(=O)[nH]ncc3n2)CC1` [Form GHC12], in series [1] (listed as GHCl2), the “XRPD analysis results 60% (7 days): polymorphic conversion” value (“XRPD analysis results 60% (7 days)” below) is reported as “No”.

Turning to `N#CCC1CCN(c2nc(Nc3ccc(N4CCC(O)CC4)cc3)c3c(=O)[nH]ncc3n2)CC1` [Form GHC13], the “XRPD analysis results 60% (7 days)” value in series [1] is given as “no polymorphic conversion”. Also, the “stability under tested stress conditions” value in series [2] (high humidity up to 60% RH for 7 days) is reported as “stable”.

Take `N#CCC1CCN(c2nc(Nc3ccc(N4CCC(O)CC4)cc3)c3c(=O)[nH]ncc3n2)CC1` [Form GHC11]: the “XRPD analysis results 60% (7 days)” value in series [1] (listed as GHCl1) was “No”. The “stability under all tested stress conditions” value in series [2] (high humidity up to 100% RH for 7 days) is “stable”.

`N#CCC1CCN(c2nc(Nc3ccc(N4CCC(O)CC4)cc3)c3c(=O)[nH]ncc3n2)CC1` [Form GS4, 2-[1-[4-[4-(4-hydroxypiperidin-1-yl)anilino]-5-oxo-6H-pyrimido[4,5-d]pyridazin-2-yl]piperidin-4-yl]acetonitrile]: the “XRPD analysis results 60% (7 days)” value in series [1] (listed as GS4) is listed as “No”. Besides, the “XRPD analysis results 80% (7 days): polymorphic conversion” value in series [1] (80% relative humidity) is “No”. In addition, the “XRPD analysis results 100% (7 days): polymorphic conversion” value in series [1] (100% relative humidity) was “No”. In series [2] (high humidity up to 80% RH for 7 days), the “stability under all tested stress conditions” value is reported as “stable”.

Turning to `N#CCC1CCN(c2nc(Nc3ccc(N4CCC(O)CC4)cc3)c3c(=O)[nH]ncc3n2)CC1` [Form GS2, 2-[1-[4-[4-(4-hydroxypiperidin-1-yl)anilino]-5-oxo-6H-pyrimido[4,5-d]pyridazin-2-yl]piperidin-4-yl]acetonitrile], in series [1] (listed as GS2), the “XRPD analysis results 60% (7 days)” value is on record as “No”. Further, the “XRPD analysis results, Solvent-drop grinding (ethanol)” value in series [3] (about 20 mg ground 2 minutes, 10 microlitres ethanol) was “No polymorphic”. The “XRPD analysis results, Solvent-drop grinding (isopropyl alcohol)” value in series [3] (about 20 mg ground 2 minutes, 10 microlitres isopropyl alcohol) is reported as “No polymorphic”. Further, the “XRPD analysis results, Solvent-drop grinding (water)” value in series [3] (about 20 mg ground 2 minutes, 10 microlitres water) is reported as “No polymorphic”. Further, the “XRPD analysis results, Strong grinding” value in series [3] (about 20 mg ground with mortar and pestle for 2 minutes, no solvent) is reported as “No polymorphic”. For the same molecule, in series [4], the “Result, Heating 100° C., 30 minutes” value was “Stable”.

In the case of `N#CCC1CCN(c2nc(Nc3ccc(N4CCC(O)CC4)cc3)c3c(=O)[nH]ncc3n2)CC1` [Form GS3, 2-[1-[4-[4-(4-hydroxypiperidin-1-yl)anilino]-5-oxo-6H-pyrimido[4,5-d]pyridazin-2-yl]piperidin-4-yl]acetonitrile], the “XRPD analysis results 60% (7 days)” value in series [1] (listed as GS3) was “No”.

With `N#CCC1CCN(c2nc(Nc3ccc(N4CCC(O)CC4)cc3)c3c(=O)[nH]ncc3n2)CC1` [Form GHC18], the “XRPD analysis results 60% (7 days)” value in series [1] (listed as GHCl8) is “No”.
